Source: patent publication US6509369B2, “Anti-inflammatory compounds” (Ortho-McNeil Pharmaceutical, Inc., priority 1997, dated 2003)

How the values were obtained:
[1] = tested on: human progesterone receptor (hPR); assay: human progesterone receptor binding assay (displacement of 3(H) R5020 Promegestone)
Description: A human progesterone receptor binding assay was performed in order to determine selectivity of the compounds, as follows. Human progesterone receptors were prepared from either insect cells (SF21) infected with baculovirus hPR A, or from a breast cancer cell line, T47D, which expresses high levels of endogenous hPR. The receptor binding reactions, with or without test compounds, were set up in 96-well microtiter plates which were previously siliconized with SIGMACOTE. The binding components, 3(H) R5020 Promegestone, a high affinity ligand for the progesterone receptors, glycerol/molybdate-containing buffer and unlabeled compounds were added to the wells using a combination of BIOMEK laboratory automation system and repeat pipettes. After overnight incubation, the samples were precipitated with polyethylene glycol and filtered through Whatman GF/F paper using a TOMTEK cell harvester. The filter mate with 96 samples were bound to a solid-phase scintillant and directly counted in the BETAPLATE counter. Only those compounds that were active in the human glucocorticoid receptor assay set forth in Example 30 were used for progesterone receptor binding to determine cross-reactivity profiles, if any. The activity of test compounds to displace 3(H) R5020 binding to hPR is expressed as percent inhibition at the two concentrations, 10^−6 and 10^−5 Molar.

[2] = molecular target: T1, human glucocorticoid receptor (hGR) (Homo sapiens, UniProt P04150); assay: human glucocorticoid receptor binding assay (displacement of 3(H) Triamcinolone acetonide); details: for hGR, value given as %: concentration not given
T1 construct: made in house; host or cells: Sf21 insect cells infected with baculovirus hGR, OR IM9 lymphoblast cell line (endogenous hGR)
T1 sequence (P04150 1-777): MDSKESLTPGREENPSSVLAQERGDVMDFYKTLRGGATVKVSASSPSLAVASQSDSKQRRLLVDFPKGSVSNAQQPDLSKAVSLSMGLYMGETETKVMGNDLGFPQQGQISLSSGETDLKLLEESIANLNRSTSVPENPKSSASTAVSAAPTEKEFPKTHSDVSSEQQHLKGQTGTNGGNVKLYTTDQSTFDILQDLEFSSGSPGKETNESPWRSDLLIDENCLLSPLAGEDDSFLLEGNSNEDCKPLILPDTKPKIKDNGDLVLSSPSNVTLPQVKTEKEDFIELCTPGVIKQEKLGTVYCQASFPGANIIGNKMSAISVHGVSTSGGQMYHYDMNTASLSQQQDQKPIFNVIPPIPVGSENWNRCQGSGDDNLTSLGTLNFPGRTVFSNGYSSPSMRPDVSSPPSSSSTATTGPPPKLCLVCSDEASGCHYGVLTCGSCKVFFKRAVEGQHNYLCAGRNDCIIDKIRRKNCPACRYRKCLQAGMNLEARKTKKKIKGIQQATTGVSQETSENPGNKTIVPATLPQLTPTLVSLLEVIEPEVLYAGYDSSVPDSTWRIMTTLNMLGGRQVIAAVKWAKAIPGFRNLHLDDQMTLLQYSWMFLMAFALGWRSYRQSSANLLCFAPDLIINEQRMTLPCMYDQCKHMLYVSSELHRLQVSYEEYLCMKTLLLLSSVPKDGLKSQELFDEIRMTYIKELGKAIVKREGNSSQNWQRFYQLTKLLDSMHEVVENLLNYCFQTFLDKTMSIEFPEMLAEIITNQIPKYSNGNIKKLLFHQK
Description: A human glucocorticoid receptor binding assay was carried out to determine the extent to which the compounds of this invention have the ability to bind to human glucocorticoid receptors. This binding ability may be indicative of the antiinflammatory activity of the compound. The test was carried out as follows.
Human glucocorticoid receptors were prepared from either insect cells (Sf21) infected with baculovirus hGR or from a lymphoblast cell line which expresses high levels of endogenous hGR (IM9). The receptor binding reactions, with or without test compounds, were set up in 96-well microtiter plates which were previously siliconized with SIGMACOTE™, a chlorinated organopolysiloxane in heptane. The binding components, 3(H) Triamcinolone acetonide (TAA), glycerol/molybdate-containing buffer and unlabeled compounds were added to the wells using a combination of BIOMEK laboratory automation system and repeat pipettes. After four hours of incubation, the samples were precipitated with polyethylene glycol and filtered through Whatman GF/F paper using a TOMTEK cell harvester. The filter mate with 96 samples were bound to a solid-phase scintillant and directly counted in a BETAPLATE counter. […] The activity of test compounds to displace 3(H) TAA binding to hGR is also expressed as percent inhibition at 1 μM.

[3] = tested on: oxazolone-induced ear swelling (MOCH) in albino male CD-1 mice; assay: mouse oxazolone-induced contact hypersensitization (MOCH) ear swelling; assay type: in vivo; details: topical to mouse ear, 1 mg, one hour after oxazolone challenge, ear biopsy weight at 24 hours
Description: Several triphenylpropanamide compounds of this invention, having varying affinities for the human glucocorticoid receptor, were tested for topical antiinflammatory activity in mouse ear inflammation models. […] Compounds having receptor affinities closer to hydrocortisone were as nearly active as hydrocortisone in suppressing mouse oxazolone-induced contact hypersensitization (MOCH) and phorbol ester-induced ear edema. The in vivo studies of this example were conducted as follows.
In determining the MOCH using the compounds of this invention, albino male CD-1 mice, 7-9 weeks old were induced on the shaved abdomen with 50 μl of 3% oxazolone in acetone/corn oil (Day 0). On Day 5, a 20 μl volume of 2% oxazolone in acetone was applied to the dorsal left ear of the mouse . Compounds (made in ethanol/propylene glycol, 70:30) were applied to the left ear in 20 μl volume, one hour after oxazolone challenge. The right ear was not treated. The mice were sacrificed by carbon dioxide inhalation 24 hours after oxazolone challenge, the left and right ears were removed and a 7 mm biopsy was removed from each ear and weighed. The difference in biopsy weights between the right and left ears was calculated. Antiinflammatory effects of compounds were evident as an inhibition of the increase in ear weight.

Row | hPR % inh 10 μM [1] | IC50 [2] | hGR, value given as % [2] | SMILES | Oxazolone Ear Swelling (MOCH) % inhibition vs. Vehicle at 1 mg [3]
1 | −23% | 134 nM | – | O=C(Cc1ccccc1Cl)NCC(c1ccccc1)C(c1ccccc1)c1ccccc1 (stereo not drawn) [Compound 2] | –
2 | 4% | 480 nM | – | O=C(Cc1ccc(Cl)cc1)NCC(c1ccccc1)C(c1ccccc1)c1ccccc1 (stereo not drawn) [Compound 3] | –
3 | 12% | 528 nM | – | Cc1ccc(CC(=O)NCC(c2ccccc2)C(c2ccccc2)c2ccccc2)cc1 (stereo not drawn) [Compound 4] | –
4 | 11.6% | 910 nM | – | COc1ccc(CC(=O)NCC(c2ccccc2)C(c2ccccc2)c2ccccc2)cc1OC (stereo not drawn) [Compound 7] | –
5 | 3% | 340 nM | – | O=C(Cc1c(Cl)cccc1Cl)NCC(c1ccccc1)C(c1ccccc1)c1ccccc1 (stereo not drawn) [Compound 8] | –
6 | 15% | 780 nM | – | O=C(Cc1ccccc1C(F)(F)F)NCC(c1ccccc1)C(c1ccccc1)c1ccccc1 (stereo not drawn) [Compound 10] | –
7 | 20% | 830 nM | – | O=C(Cc1cccc(C(F)(F)F)c1)NCC(c1ccccc1)C(c1ccccc1)c1ccccc1 (stereo not drawn) [Compound 11] | –
8 | 15% | 1500 nM | – | O=C(Cc1ccc(C(F)(F)F)cc1)NCC(c1ccccc1)C(c1ccccc1)c1ccccc1 (stereo not drawn) [Compound 12] | –
9 | 18% | 72 nM | – | O=C(Cc1ccccc1)NCC(c1ccc(Cl)cc1)C(c1ccccc1)c1ccccc1 (stereo not drawn) [Compound 14] | –
10 | 14.1% | 610 nM | – | O=C(Cc1ccccc1)NCC(c1ccccc1)C(c1ccc(F)cc1)c1ccc(F)cc1 (stereo not drawn) [Compound 18, N-[3,3-bis-(4-fluorophenyl)-2-phenylpropyl]-2-phenylacetamide] | –
11 | 24% | 141 nM | – | O=C(CCc1ccccc1)NCC(c1ccccc1)C(c1ccccc1)c1ccccc1 (stereo not drawn) [Compound 19] | –
12 | 9% | 58 nM | – | COc1ccccc1CCC(=O)NCC(c1ccccc1)C(c1ccccc1)c1ccccc1 (stereo not drawn) [Compound 20] | –
13 | 10% | 670 nM | – | O=C(CCCc1ccccc1)NCC(c1ccccc1)C(c1ccccc1)c1ccccc1 (stereo not drawn) [Compound 24] | –
14 | 17% | 21 nM | – | O=C(Cc1cccs1)NCC(c1ccc(Cl)cc1)C(c1ccccc1)c1ccccc1 (stereo not drawn) [Compound 34] | –
15 | 22% | 25 nM | – | O=C(Cc1ccsc1)NCC(c1ccccc1)C(c1ccccc1)c1ccccc1 (stereo not drawn) [Compound 36] | –
16 | 4% | 500 nM | – | O=C(CCCc1cccs1)NCC(c1ccccc1)C(c1ccccc1)c1ccccc1 (stereo not drawn) [Compound 37] | –
17 | 22% | 151 nM | – | O=S(=O)(NCC(c1ccccc1)C(c1ccccc1)c1ccccc1)c1cccs1 (stereo not drawn) [Compound 40] | –
18 | 18% | 68 nM | – | O=C(NCC(c1ccccc1)C(c1ccccc1)c1ccccc1)c1ccsc1 (stereo not drawn) [Compound 42] | –
19 | 5% | 31 nM | – | O=C(NCC(c1ccccc1)C(c1ccccc1)c1ccccc1)c1cccs1 (stereo not drawn) [Compound 45] | –

Row | hPR % inh 10 μM [1] | IC50 [2] | hGR, value given as % [2] | SMILES | Oxazolone Ear Swelling (MOCH) % inhibition vs. Vehicle at 1 mg [3]
20 | 17% | 416 nM | – | O=C(Cc1c[nH]c2ccccc12)NCC(c1ccccc1)C(c1ccccc1)c1ccccc1 (stereo not drawn) [Compound 47] | –
21 | 19% | 605 nM | – | O=C(CCc1c[nH]c2ccccc12)NCC(c1ccccc1)C(c1ccccc1)c1ccccc1 (stereo not drawn) [Compound 48] | –
22 | 11% | 200 nM | – | O=C(Cc1ccccn1)NCC(c1ccccc1)C(c1ccccc1)c1ccccc1 (stereo not drawn) [Compound 49] | –
23 | 18% | 888 nM | – | O=C(Cc1ccccc1)NCC(c1ccccc1)C1c2ccccc2-c2ccccc21 (stereo not drawn) [Compound 66] | –
24 | 16% | 820 nM | – | O=C(Cc1cccs1)NCC(c1ccccc1)C1c2ccccc2-c2ccccc21 (stereo not drawn) [Compound 71] | –
25 | 6% | 1200 nM | – | O=C(Cc1ccccc1)NCC1(c2ccccc2)CC1(c1ccccc1)c1ccccc1 (stereo not drawn) [Compound 78] | –
26 | 24.5% | 1000 nM | – | COc1ccc(CC(=O)NCC2(c3ccccc3)CC2(c2ccccc2)c2ccccc2)cc1OC (stereo not drawn) [Compound 79] | –
27 | −11% | 955 nM | – | O=C(Cc1ccccc1Cl)NCC1(c2ccccc2)CC1(c1ccccc1)c1ccccc1 (stereo not drawn) [Compound 80, N-(2chlorophenyl)acetyl-1,2,2-triphenylcyclopropylmethylamine] | –
28 | −20.4% | 510 nM | – | O=C(NCC1(c2ccccc2)CC1(c1ccccc1)c1ccccc1)C(c1ccccc1)c1ccccc1 (stereo not drawn) [Compound 82] | –
29 | 45% | 573 nM | – | CCCC(=O)NCC1(c2ccccc2)CC1(c1ccccc1)c1ccccc1 (stereo not drawn) [Compound 83] | –
30 | 15.3% | 612 nM | – | CC(C)C(=O)NCC1(c2ccccc2)CC1(c1ccccc1)c1ccccc1 (stereo not drawn) [Compound 84] | –
31 | 7.2s % | – | 68% | CC(C)CC(=O)NCC1(c2ccccc2)CC1(c1ccccc1)c1ccccc1 (stereo not drawn) [Compound 85] | 16%
32 | 12.6% | 665 nM | – | CC(C)(C)C(=O)NCC1(c2ccccc2)CC1(c1ccccc1)c1ccccc1 (stereo not drawn) [Compound 86] | –
33 | 19.8% | 681 nM | – | CCCCC(=O)NCC1(c2ccccc2)CC1(c1ccccc1)c1ccccc1 (stereo not drawn) [Compound 87] | –
34 | 22% | 570 nM | – | O=C(Cc1ccsc1)NCC1(c2ccccc2)CC1(c1ccccc1)c1ccccc1 (stereo not drawn) [Compound 89] | –
35 | −1% | 1490 nM | – | O=C(NCC1(c2ccccc2)CC1(c1ccccc1)c1ccccc1)Nc1ccccc1 (stereo not drawn) [Compound 92] | –
36 | 33.9% | – | 17% | O=C(NCC1(c2ccccc2)CC1(c1ccccc1)c1ccccc1)Nc1ccccc1F (stereo not drawn) [Compound 93] | 26%
37 | −18.6% | – | 13% | COc1ccccc1NC(=O)NCC1(c2ccccc2)CC1(c1ccccc1)c1ccccc1 (stereo not drawn) [Compound 94] | 35%
38 | −14.3% | – | 4% | O=C(NCc1ccccc1)NCC1(c2ccccc2)CC1(c1ccccc1)c1ccccc1 (stereo not drawn) [Compound 95] | 16%

Row | SMILES | hPR % inh 10 μM [1] | IC50 [2] | hGR, value given as % [2] | Oxazolone Ear Swelling (MOCH) % inhibition vs. Vehicle at 1 mg [3]
39 | O=C(NCC1(c2ccccc2)CC1(c1ccccc1)c1ccccc1)Oc1ccccc1 (stereo not drawn) [Compound 96] | 9.9% | 927 nM | – | –
40 | O=C(NCC1(c2ccccc2)CC1(c1ccccc1)c1ccccc1)Oc1ccc(Cl)cc1 (stereo not drawn) [Compound 97] | 12.5% | 157 nM | – | –
